Test results from patent US9499495B2, “Quinazolines and azaquinazolines as dual inhibitors of RAS/RAF/MEK/ERK and PI3K/AKT/PTEN/mTOR pathways” (Asana Biosciences, LLC, priority 2013, dated 2016).

Assays:
mTOR kinase = biological target: T1, mTOR kinase (Homo sapiens, UniProt P42345); experiment: mTOR kinase TR-FRET assay; format: biochemical
T1 construct: purchased Millipore, US
Outline: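 TR-FRET with ULight-p70 S6K (Thr 389) peptide (50 nM) and 20 μM ATP in 50 mM HEPES pH 7.5, 1 mM EGTA, 3 mM MnCl2; compound pre-incubated with enzyme before substrate addition, reaction at rt, EDTA-stopped. Eu anti-phospho antibody read 665/615 nm; IC50 from sigmoidal dose-response fit.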

PI3Kα = biological target: T2, PI3Kα (Homo sapiens, UniProt P42336); experiment: PI3 Kinase alpha TR-FRET assay; format: biochemical
T2 construct: made in house; host or cells: SF9 cells
Outline: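 Purified Sf9-expressed p110/p85α (5 ng) was pre-incubated with compound and PIP2 at rt, then ATP was added (PIP2 and ATP both 40 μM) for a 30 min reaction. PIP3 was detected by TR-FRET displacement of biotin-PIP3, and IC50 was taken from dose-response curves of the 665/615 nm emission ratio.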

pERK in A375 cells = experiment: In Cell Western (ICW) assay, pERK in A375 cells; format: cell-based; conditions: Homo sapiens, A-375, 3 h treatment
Outline: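 After a 3 h compound treatment at 37 °C, fixed RKO or A375 cells were probed for phospho-ERK1/2 (T202/Y204), phospho-S6RP or phospho-AKT T308 and detected with a Eu-tagged anti-rabbit antibody (ex 340/em 615 nm), with Hoechst signal as the cell-number correction. Inhibition was referenced to DMSO, and IC50 values came from sigmoidal dose-response curves.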

T2 sequence (P42336 whole entry, species assumed): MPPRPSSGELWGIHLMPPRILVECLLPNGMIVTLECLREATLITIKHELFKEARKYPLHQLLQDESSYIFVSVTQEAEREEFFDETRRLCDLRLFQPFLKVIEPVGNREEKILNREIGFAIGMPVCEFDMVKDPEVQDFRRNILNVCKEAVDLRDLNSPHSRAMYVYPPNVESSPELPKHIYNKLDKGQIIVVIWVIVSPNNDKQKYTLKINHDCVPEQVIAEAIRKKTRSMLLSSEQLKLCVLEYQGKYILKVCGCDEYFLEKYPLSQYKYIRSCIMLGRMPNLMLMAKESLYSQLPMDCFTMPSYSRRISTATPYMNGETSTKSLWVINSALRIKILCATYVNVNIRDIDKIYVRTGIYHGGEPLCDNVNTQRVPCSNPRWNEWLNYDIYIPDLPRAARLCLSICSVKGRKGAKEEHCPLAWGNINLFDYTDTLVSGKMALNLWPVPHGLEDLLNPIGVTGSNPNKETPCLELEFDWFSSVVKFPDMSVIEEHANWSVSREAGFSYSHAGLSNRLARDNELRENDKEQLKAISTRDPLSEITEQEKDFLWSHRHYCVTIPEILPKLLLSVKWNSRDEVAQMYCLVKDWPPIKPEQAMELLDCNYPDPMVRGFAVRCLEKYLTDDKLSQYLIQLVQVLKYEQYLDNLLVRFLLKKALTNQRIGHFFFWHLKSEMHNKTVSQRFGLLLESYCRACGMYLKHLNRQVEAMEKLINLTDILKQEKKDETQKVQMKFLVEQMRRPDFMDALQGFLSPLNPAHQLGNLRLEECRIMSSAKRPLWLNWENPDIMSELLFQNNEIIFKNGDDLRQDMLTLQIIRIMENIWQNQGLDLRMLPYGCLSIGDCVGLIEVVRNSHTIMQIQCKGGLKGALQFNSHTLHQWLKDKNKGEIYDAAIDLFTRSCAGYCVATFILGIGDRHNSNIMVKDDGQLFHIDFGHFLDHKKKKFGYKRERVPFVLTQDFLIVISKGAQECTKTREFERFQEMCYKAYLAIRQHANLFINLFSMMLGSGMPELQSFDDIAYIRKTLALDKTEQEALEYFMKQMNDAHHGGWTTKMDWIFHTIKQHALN
T2 sequence (P27986 whole entry partner, species assumed): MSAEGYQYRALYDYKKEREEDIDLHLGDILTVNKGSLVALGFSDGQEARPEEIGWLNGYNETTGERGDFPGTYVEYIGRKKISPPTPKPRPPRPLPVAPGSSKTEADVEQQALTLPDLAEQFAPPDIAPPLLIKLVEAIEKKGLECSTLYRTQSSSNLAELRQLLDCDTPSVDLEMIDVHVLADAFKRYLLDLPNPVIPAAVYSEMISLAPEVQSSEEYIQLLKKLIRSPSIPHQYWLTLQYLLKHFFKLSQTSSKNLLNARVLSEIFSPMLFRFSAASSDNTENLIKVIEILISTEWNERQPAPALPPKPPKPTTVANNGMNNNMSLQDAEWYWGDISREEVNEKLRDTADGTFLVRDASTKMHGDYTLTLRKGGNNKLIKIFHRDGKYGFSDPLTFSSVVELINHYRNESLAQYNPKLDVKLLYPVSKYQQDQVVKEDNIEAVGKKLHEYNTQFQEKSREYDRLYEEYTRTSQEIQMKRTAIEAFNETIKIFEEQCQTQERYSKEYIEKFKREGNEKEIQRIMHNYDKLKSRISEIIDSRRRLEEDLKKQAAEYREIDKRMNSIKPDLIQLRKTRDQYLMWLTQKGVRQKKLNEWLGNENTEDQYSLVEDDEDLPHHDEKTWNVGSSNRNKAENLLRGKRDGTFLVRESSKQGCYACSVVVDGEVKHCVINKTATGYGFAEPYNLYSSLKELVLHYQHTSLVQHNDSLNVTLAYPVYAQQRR
T1 sequence (P42345 1362-2549 limits assumed): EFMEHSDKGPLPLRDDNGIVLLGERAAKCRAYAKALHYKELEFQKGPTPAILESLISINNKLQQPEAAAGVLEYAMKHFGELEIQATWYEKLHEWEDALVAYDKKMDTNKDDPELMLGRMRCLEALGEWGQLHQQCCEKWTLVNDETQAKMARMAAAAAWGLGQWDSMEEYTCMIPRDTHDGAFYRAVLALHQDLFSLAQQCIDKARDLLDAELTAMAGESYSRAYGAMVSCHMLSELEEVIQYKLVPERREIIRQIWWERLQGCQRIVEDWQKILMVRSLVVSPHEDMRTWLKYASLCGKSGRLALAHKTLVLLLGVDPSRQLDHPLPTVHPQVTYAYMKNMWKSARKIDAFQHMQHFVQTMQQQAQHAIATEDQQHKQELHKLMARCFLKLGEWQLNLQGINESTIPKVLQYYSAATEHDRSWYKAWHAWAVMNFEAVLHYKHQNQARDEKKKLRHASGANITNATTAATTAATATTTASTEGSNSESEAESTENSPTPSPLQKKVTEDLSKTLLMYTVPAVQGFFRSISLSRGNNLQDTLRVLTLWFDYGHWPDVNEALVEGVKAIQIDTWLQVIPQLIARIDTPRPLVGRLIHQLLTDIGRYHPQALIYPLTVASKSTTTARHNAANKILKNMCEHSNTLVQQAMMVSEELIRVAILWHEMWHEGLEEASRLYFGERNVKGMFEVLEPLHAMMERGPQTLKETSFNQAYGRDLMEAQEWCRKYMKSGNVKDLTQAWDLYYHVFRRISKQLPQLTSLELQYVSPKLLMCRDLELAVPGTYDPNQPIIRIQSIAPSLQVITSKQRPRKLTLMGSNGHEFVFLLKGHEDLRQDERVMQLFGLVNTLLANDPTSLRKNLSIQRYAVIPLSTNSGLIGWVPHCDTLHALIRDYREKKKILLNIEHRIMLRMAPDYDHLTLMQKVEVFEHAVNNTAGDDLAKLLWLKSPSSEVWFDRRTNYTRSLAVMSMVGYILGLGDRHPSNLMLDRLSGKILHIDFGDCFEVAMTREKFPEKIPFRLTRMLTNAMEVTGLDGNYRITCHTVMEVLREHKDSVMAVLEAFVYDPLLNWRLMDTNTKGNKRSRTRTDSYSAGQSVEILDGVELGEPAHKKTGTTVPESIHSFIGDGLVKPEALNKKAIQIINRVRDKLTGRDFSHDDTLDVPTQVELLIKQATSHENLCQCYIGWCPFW

SMILES | IC50 (mTOR kinase) [nM] | IC50 (PI3Kα) [nM] | IC50 (pERK in A375 cells) [nM]
CCCS(=O)(=O)Nc1cccc(-c2ccc3nc(-c4cnc(N)nc4)nc(N4CCOCC4)c3n2)c1F [Example 7, N-(3-(2-(2-aminopyrimidin-5-yl)-4-morpholinopyrido[3,2-d]pyrimidin-6-yl)-2-fluorophenyl)propane-1-sulfonamide] | 100 to 1000 | 1 to 100 | 100 to 1000
COc1cc2nc(-c3cnc(N)nc3)nc(N3CCOCC3)c2cc1-c1cccc(NS(=O)(=O)CCCF)c1F [Example 11, N-(3-(2-(2-aminopyrimidin-5-yl)-7-methoxy-4-morpholinoquinazolin-6-yl)-2-fluorophenyl)-3-fluoropropane-1-sulfonamide] | 1 to 100 | 100 to 1000 | 1 to 100
CNC(=O)Nc1ccc(-c2nc(N3CCOCC3)c3cc(-c4cccc(NS(=O)(=O)CCCF)c4F)cc(OC)c3n2)cn1 [Example 39, 3-fluoro-N-(2-fluoro-3-(8-methoxy-2-(6-(3-methylureido)pyridin-3-yl)-4-morpholinoquinazolin-6-yl)phenyl)propane-1-sulfonamide] | 1 to 100 | 100 to 1000 | 1 to 100
COc1cc(-c2cccc(NS(=O)(=O)CCCF)c2F)cc2c(N3CCOC[C@H]3C)nc(-c3cnc(N)nc3)nc12 [Example 43, (R)-N-(3-(2-(2-aminopyrimidin-5-yl)-8-methoxy-4-(3-methylmorpholino)quinazolin-6-yl)-2-fluorophenyl)-3-fluoropropane-1-sulfonamide] | 1 to 100 | 100 to 1000 | 1 to 100
Nc1ncc(-c2nc(N3CCOCC3)c3cc(-c4cccc(NS(=O)(=O)CCCF)c4F)cc(N4CCOCC4)c3n2)cn1 [Example 69, N-(3-(2-(2-aminopyrimidin-5-yl)-4,8-dimorpholinoquinazolin-6-yl)-2-fluorophenyl)-3-fluoropropane-1-sulfonamide] | 1 to 100 | 100 to 1000 | 1 to 100
COc1cc(-c2c(F)ccc(NS(=O)(=O)CCCF)c2F)cc2c(N3CCOCC3)nc(-c3ccc(N)nc3)nc12 [Example 79, N-(3-(2-(6-aminopyridin-3-yl)-8-methoxy-4-morpholinoquinazolin-6-yl)-2,4-difluorophenyl)-3-fluoropropane-1-sulfonamide] | 1 to 100 | 100 to 1000 | 1 to 100
Nc1ccc(-c2nc(N3CCOCC3)c3nc(-c4cccc(NS(=O)(=O)c5cc(F)ccc5F)c4F)ccc3n2)cn1 [Example 92, N-(3-(2-(6-aminopyridin-3-yl)-4-morpholinopyrido[3,2-d]pyrimidin-6-yl)-2-fluorophenyl)-2,5-difluorobenzenesulfonamide] | 100 to 1000 | 1 to 100 | 1 to 100
Nc1ncc(-c2nc(N3CCOCC3)c3nc(-c4cccc(NS(=O)(=O)c5cc(F)ccc5F)c4F)ccc3n2)cn1 [Example 93, N-(3-(2-(2-aminopyrimidin 5-yl)-4-morpholinopyrido[3,2-d]pyrimidin-6-yl)-2-fluorophenyl)-2,5-difluorobenzenesulfonamide] | 100 to 1000 | 1 to 100 | 100 to 1000
Nc1ccc(-c2nc(N3CCOCC3)c3nc(-c4cccc(NS(=O)(=O)c5c(F)cccc5F)c4F)ccc3n2)cn1 [Example 95, N-(3-(2-(6-aminopyridin-3-yl)-4-morpholinopyrido[3,2-d]pyrimidin-6-yl)-2-fluorophenyl)-2,6-difluorobenzenesulfonamide] | 1 to 100 | 100 to 1000 | 100 to 1000
C[C@@H]1COCCN1c1nc(-c2ccc(N)nc2)nc2ccc(-c3cccc(NS(=O)(=O)CCCF)c3F)nc12 [Example 96, (R)-N-(3-(2-(6-aminopyridin-3-yl)-4-(3-methylmorpholino)pyrido[3,2-d]pyrimidin-6-yl)-2-fluorophenyl)-3-fluoropropane-1-sulfonamide] | 100 to 1000 | 100 to 1000 | 1 to 100
C[C@@H]1COCCN1c1nc(-c2cnc(N)nc2)nc2ccc(-c3cccc(NS(=O)(=O)CCCF)c3F)nc12 [Example 97, (R)-N-(3-(2-(2-aminopyrimidin-5-yl)-4-(3-methylmorpholino)pyrido[3,2-d]pyrimidin-6-yl)-2-fluorophenyl)-3-fluoropropane-1-sulfonamide] | 100 to 1000 | 1 to 100 | 1 to 100
O=S(=O)(CCCF)Nc1cccc(-c2ccc3nc(-c4ccc(NCCO)nc4)nc(N4CCOCC4)c3n2)c1F [Example 99, 3-fluoro-N-(2-fluoro-3-(2-(6-((2-hydroxyethyl)amino)pyridin-3-yl)-4-morpholinopyrido[3,2-d]pyrimidin-6-yl)phenyl)propane-1-sulfonamide] | 1 to 100 | 100 to 1000 | 1 to 100

Results, then the molecule that gave them:

IC50 (mTOR kinase) [nM] | IC50 (PI3Kα) [nM] | IC50 (pERK in A375 cells) [nM] | SMILES
1 to 100 | 1 to 100 | 100 to 1000 | CCCS(=O)(=O)Nc1cccc(-c2ccc3nc(-c4ccc(N)nc4)nc(N4CCOCC4)c3n2)c1F [Example 86, N-(3-(2-(6-aminopyridin-3-yl)-4-morpholinopyrido[3,2-d]pyrimidin-6-yl)-2-fluorophenyl)propane-1-sulfonamide]
1 to 100 | 1 to 100 | 100 to 1000 | Nc1ncc(-c2nc(N3CCOCC3)c3nc(-c4cccc(NS(=O)(=O)CCCF)c4F)ccc3n2)cn1 [Example 87, N-(3-(2-(2-aminopyrimidin-5-yl)-4-morpholinopyrido[3,2-d]pyrimidin-6-yl)-2-fluorophenyl)-3-fluoropropane-1-sulfonamide]
1 to 100 | 1 to 100 | 100 to 1000 | Nc1ccc(-c2nc(N3CCOCC3)c3nc(-c4cccc(NS(=O)(=O)CCCF)c4F)ccc3n2)cn1 [Example 88, N-(3-(2-(6-aminopyridin-3-yl)-4-morpholinopyrido[3,2-d]pyrimidin-6-yl)-2-fluorophenyl)-3-fluoropropane-1-sulfonamide]
100 to 1000 | 100 to 1000 | 100 to 1000 | Cc1cc(-c2nc(N3CCOCC3)c3nc(-c4cccc(NS(=O)(=O)CCCF)c4F)ccc3n2)cnc1N [Example 90, N-(3-(2-(6-amino-5-methylpyridin-3-yl)-4-morpholinopyrido[3,2-d]pyrimidin-6-yl)-2-fluorophenyl)-3-fluoropropane-1-sulfonamide]
1 to 100 | 1 to 100 | 1 to 100 | Nc1cc(C(F)(F)F)c(-c2nc(N3CCOCC3)c3nc(-c4cccc(NS(=O)(=O)CCCF)c4F)ccc3n2)cn1 [Example 94, N-(3-(2-(6-amino-4-(trifluoromethyl)pyridin-3-yl)-4-morpholinopyrido[3,2-d]pyrimidin-6-yl)-2-fluorophenyl)-3-fluoropropane-1-sulfonamide]
100 to 1000 | 1 to 100 | 1 to 100 | Cc1cc(N)ncc1-c1nc(N2CCOCC2)c2nc(-c3cccc(NS(=O)(=O)CCCF)c3F)ccc2n1 [Example 101, N-(3-(2-(6-amino-4-methylpyrtdin-3-yl)-4-morpholinopyrldo[3,2-d]pyrimidin-6-yl)-2-fluorophenyl)-3-fluoropropane-1-sulfonamide]
1 to 100 | 1 to 100 | 100 to 1000 | Nc1cc(F)c(-c2nc(N3CCOCC3)c3nc(-c4cccc(NS(=O)(=O)CCCF)c4F)ccc3n2)cn1 [Example 102, N-(3-(2-(6-amino-4-fluoropyridin-3-yl)-4-morpholinopyrido[3,2-d]pyrimidin-6-yl)-2-fluorophenyl)-3-fluoropropane-1-sulfonamide]
